# Source: ChEMBL document CHEMBL4665686, “Dehydrohispanolone Derivatives Attenuate the Inflammatory Response through the Modulation of Inflammasome Activation” (J Nat Prod, 2020)
# pIC50: −log10 of the molar value. Active and inactive are the calls of the source. No cut-off for these calls is given here.
# Legend:
# [1] = target: NACHT, LRR and PYD domains-containing protein 3 (Mus musculus) (UniProt Q8R4B8); test: Inhibition of NLRP3 in mouse J774A.1 cells assessed as inhibition of LPS-induced NO production at 20 uM measured after 24 hrs by Griess reagent; assay type: cell-based; conditions: J774.A1
# [2] = test system: J774.A1; test: Cytotoxicity against mouse J774.A1 cells assessed as cell viability at 10 to 20 uM after 24 hrs by MTT assay; assay type: cell-based; conditions: j774.a1, 24 h, dose 10-20 µM
# [3] = target: NACHT, LRR and PYD domains-containing protein 3 (Mus musculus) (UniProt Q8R4B8); test: Inhibition of NLRP3 in mouse J774A.1 cells assessed as inhibition of LPS and nigerecin-induced IL-1beta production at 20 uM pre-stimulated with LPS for 5 hrs followed by compound treatment for 30 mins and then nigericin addition for 45 mins by ELISA; assay type: cell-based; conditions: J774.A1, time 75.0 min
# [4] = target: NACHT, LRR and PYD domains-containing protein 3 (Mus musculus) (UniProt Q8R4B8); test: Inhibition of NLRP3 in mouse J774A.1 cells assessed as inhibition of LPS and MSU-induced IL-1beta production at 20 uM pre-stimulated with LPS for 5 hrs followed by compound treatment for 30 mins and then MSU addition for 24 hrs by ELISA; assay type: cell-based; conditions: J774.A1, time 24.5 hrs
# [5] = target: NACHT, LRR and PYD domains-containing protein 3 (Mus musculus) (UniProt Q8R4B8); test: Inhibition of NLRP3 in mouse J774A.1 cells assessed as inhibition of LPS and ATP-induced IL-1beta production at 20 uM pre-stimulated with LPS for 5 hrs followed by compound treatment for 30 mins and then ATP addition for 45 mins by ELISA; assay type: cell-based; conditions: J774.A1, time 75.0 min
# [6] = target: NACHT, LRR and PYD domains-containing protein 3 (Mus musculus) (UniProt Q8R4B8); test: Inhibition of NLRP3 in mouse J774A.1 cells assessed as inhibition of LPS and nigericin-induced cleaved IL-1beta production at 20 uM pre-stimulated with LPS for 5 hrs before compound addition with ATP for 45 mins by Western blot analysis; assay type: cell-based; conditions: J774.A1
# [7] = target: NACHT, LRR and PYD domains-containing protein 3 (Mus musculus, UniProt Q8R4B8); test: Inhibition of NLRP3 in mouse J774A.1 cells assessed as inhibition of LPS and nigerecin-induced IL-1beta production pre-stimulated with LPS for 5 hrs followed by compound treatment for 30 mins and then nigericin addition for 45 mins by ELISA; assay type: cell-based, J774.A1
# [8] = target: NACHT, LRR and PYD domains-containing protein 3 (Mus musculus) (UniProt Q8R4B8); conditions: J774.A1, dose 300.0 nM, time 45.0 min
# Sequence of NACHT, LRR and PYD domains-containing protein 3 (Mus musculus) (Q8R4B8 whole entry, the tested form may be a part): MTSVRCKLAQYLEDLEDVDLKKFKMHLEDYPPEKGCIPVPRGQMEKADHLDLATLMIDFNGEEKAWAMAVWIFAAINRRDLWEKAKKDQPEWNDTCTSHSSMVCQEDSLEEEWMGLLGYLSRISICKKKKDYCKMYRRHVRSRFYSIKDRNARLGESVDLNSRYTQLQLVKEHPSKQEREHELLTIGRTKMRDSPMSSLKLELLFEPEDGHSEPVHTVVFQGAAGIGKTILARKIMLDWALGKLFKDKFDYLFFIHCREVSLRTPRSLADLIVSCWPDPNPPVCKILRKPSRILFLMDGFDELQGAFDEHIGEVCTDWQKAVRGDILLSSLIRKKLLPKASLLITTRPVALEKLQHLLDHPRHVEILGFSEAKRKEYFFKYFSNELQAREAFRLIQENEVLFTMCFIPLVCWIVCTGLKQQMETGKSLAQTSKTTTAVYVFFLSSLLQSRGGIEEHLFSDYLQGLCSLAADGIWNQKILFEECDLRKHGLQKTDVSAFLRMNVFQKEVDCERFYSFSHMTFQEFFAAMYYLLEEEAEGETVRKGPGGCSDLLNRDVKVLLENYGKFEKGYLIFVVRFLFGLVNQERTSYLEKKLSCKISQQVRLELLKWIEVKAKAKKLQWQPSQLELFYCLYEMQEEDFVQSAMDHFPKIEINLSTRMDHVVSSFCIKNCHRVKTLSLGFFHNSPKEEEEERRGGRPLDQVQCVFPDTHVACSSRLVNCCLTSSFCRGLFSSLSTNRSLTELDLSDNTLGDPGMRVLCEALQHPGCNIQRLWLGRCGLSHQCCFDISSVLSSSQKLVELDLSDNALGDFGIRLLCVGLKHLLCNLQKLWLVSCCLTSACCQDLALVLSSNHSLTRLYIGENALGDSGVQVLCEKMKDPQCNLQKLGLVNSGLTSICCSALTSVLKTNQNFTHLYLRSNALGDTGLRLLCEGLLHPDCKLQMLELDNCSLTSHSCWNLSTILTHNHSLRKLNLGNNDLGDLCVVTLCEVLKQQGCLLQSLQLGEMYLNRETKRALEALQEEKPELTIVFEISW
# Sequence of NACHT, LRR and PYD domains-containing protein 3 (Q8R4B8 whole entry, the tested form may be a part): as above
Compound,Activity [2],further results
CCC1=C(Cc2ccoc2)C(=O)[C@@]2(C)CCCC(C)(C)[C@@H]2C1,Non-Toxic,inhibition [1]: > 50%; inhibition [3]: Active
CCCCCCCCCCCC(=O)O/N=C1/C[C@H]2C(C)(C)CCC[C@]2(C)C(CCc2ccoc2)=C1C,Non-Toxic,inhibition [4]: Active; inhibition [5]: Active; inhibition [6]: Active; pIC50 [7]: 4.73; inhibition [3]: Active
CC1=C(CCc2ccoc2)[C@@]2(C)CCCC(C)(C)[C@@H]2C/C1=N/OC(=O)N(C)C,Non-Toxic,
CC(C)(O)c1coc(S(=O)(=O)NC(=O)Nc2c3c(cc4c2CCC4)CCC3)c1,,inhibition [8]: Active
CC1=C(CCc2ccoc2)[C@@]2(C)CCCC(C)(C)[C@@H]2C/C1=N/OC(=O)CCCCC(=O)O/N=C1/C[C@H]2C(C)(C)CCC[C@]2(C)C(CCc2ccoc2)=C1C,Non-Toxic,
CC1=C(CCC2CCOC2)[C@@]2(C)CCCC(C)(C)[C@@H]2CC1=O (some centres undefined),Non-Toxic,inhibition [1]: > 50%; inhibition [3]: Active
CC1=C(CCc2ccoc2)[C@@]2(C)CCCC(C)(C)[C@@H]2CC1N (some centres undefined),Toxic,
CC1=C(CCc2ccoc2)[C@@]2(C)CCCC(C)(C)[C@@H]2CC(=O)N1,Non-Toxic,
CC1=C(CCc2ccoc2)[C@@]2(C)CCCC(C)(C)[C@@H]2C/C1=N/OC(=O)c1ccc(C(=O)O)cc1,Toxic,
CC1=C(CCc2ccoc2)[C@@]2(C)CCCC(C)(C)[C@@H]2C[C@@H]1O,Toxic,
CO[C@H]1C[C@H]2C(C)(C)CCC[C@]2(C)C(CCc2ccoc2)=C1C,Non-Toxic,
CC1=C(CCc2ccoc2)[C@@]2(C)CCCC(C)(C)[C@@H]2C/C1=N/O,Non-Toxic,
CC1=C(CCc2ccoc2)[C@@]2(C)CCCC(C)(C)[C@@H]2C/C1=N/OS(=O)(=O)c1ccc(C)cc1,Non-Toxic,
CO/N=C1/C[C@H]2C(C)(C)CCC[C@]2(C)C(CCc2ccoc2)=C1C,Non-Toxic,
CC1=C(CCc2ccoc2)[C@@]2(C)CCCC(C)(C)[C@@H]2CC1=O,Toxic,
CC(=O)O/N=C1/C[C@H]2C(C)(C)CCC[C@]2(C)C(CCc2ccoc2)=C1C,Non-Toxic,
CC1=C(CCc2ccoc2)[C@@]2(C)CCCC(C)(C)[C@@H]2C/C1=N/OC(=O)c1cccc(C(=O)O/N=C2/C[C@H]3C(C)(C)CCC[C@]3(C)C(CCc3ccoc3)=C2C)n1,Non-Toxic,
CC1=C(CCc2ccoc2)[C@@]2(C)CCCC(C)(C)[C@@H]2C/C1=N/OC(=O)c1ccc(Br)cc1,Non-Toxic,inhibition [1]: > 50%
CC1=C(CCc2ccoc2)[C@@]2(C)CCCC(C)(C)[C@@H]2C/C1=N/OC(=O)c1ccc(C(=O)O/N=C2/C[C@H]3C(C)(C)CCC[C@]3(C)C(CCc3ccoc3)=C2C)cc1,Non-Toxic,inhibition [4]: Active; inhibition [5]: Active; inhibition [6]: Active; pIC50 [7]: 4.86; inhibition [3]: Active
